Experimental data published in paper PMC10110569, “Structure and mechanism of the alkane-oxidizing enzyme AlkB” (Nature Communications, 2023).
Each block holds one molecule with its values, some of them ahead of it.

Tests used:
[1] = target: T1, FtAlkB (Fontimonas thermophila, UniProt A0A1I2KHB9); test: GC-MS alkane hydroxylation assay, purified enzyme; type: biochemical; details: purified AlkG, maize ferredoxin reductase, NADPH; 37 °C
T1 construct: gene SAMN04488120_1209; residues 4-399, codon optimized, pRSF vector, E. coli BL21 (DE3), 3C protease digestion (tag cut), DDM-solubilized; 45 kD; cryo-EM with nanobody AP32; lysate assays with AlkG and AlkT as redox partners
T1 sequence (A0A1I2KHB9 4-399): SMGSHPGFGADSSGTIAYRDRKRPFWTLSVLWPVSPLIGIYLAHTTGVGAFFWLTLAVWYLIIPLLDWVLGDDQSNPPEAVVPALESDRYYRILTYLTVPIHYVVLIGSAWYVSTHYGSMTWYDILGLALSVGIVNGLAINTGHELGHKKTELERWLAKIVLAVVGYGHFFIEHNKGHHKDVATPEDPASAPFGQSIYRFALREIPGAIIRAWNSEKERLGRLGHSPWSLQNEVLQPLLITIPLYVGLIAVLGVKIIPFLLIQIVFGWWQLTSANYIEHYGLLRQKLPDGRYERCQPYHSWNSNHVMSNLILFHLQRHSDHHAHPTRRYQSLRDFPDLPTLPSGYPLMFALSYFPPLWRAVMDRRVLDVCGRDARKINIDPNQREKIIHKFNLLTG

[2] = target: T2, Fontimonas thermophila alkane monooxygenase AlkB (FtAlkB), amino acids 4-399 (Fontimonas thermophila); test: cryo-EM structure; FtAlkB-nanobody AP32 complex in 20 mM HEPES pH 7.4, 150 mM NaCl, 0.02% DDM; single-particle cryo-EM, 3.59 Å for FtAlkB-nanobody (3.45 Å with a mask on FtAlkB only); details: both partners purified
T2 construct: Alkane monooxygenase AlkB of Fontimonas thermophila, amino acids 4-399, codon optimized, in pRSF vector; Membrane protein kept in DDM (0.02% in SEC buffer); source: E. coli BL21 (DE3), solubilized in 1% DDM, purified (cobalt resin, 3C protease digestion, SEC)
T2 chain: T1 sequence (A0A1I2KHB9 4-399)

Molecule: CCCCCCCC [octane]
- GC-MS alkane hydroxylation assay, purified enzyme [1]: FtAlkB displayed robust alkane hydroxylase activities on a model alkane octane

- binding result [2]: binds
B1: Nanobody AP32 (anti-FtAlkB nanobody) (VHH)
VHH: QVQLQESGGGLVQAGGSLRLSCAASGTISRYWTMGWYRQAPGKERELVAGISEGGSTNYADSVKGRFTISRDNAKNTVYLQMNSLKPEDTAVYYCAVTYRGPWFNRDPHYYWGQGTQVTVSS
notes: Synthetic nanobody from a library after three runs of selection; the model was started from the nanobody of PDB 7SL8 with the CDRs rebuilt, so 7SL8 is not this nanobody; also called FtAlkB-specific nanobody; source: E. coli BL21 (DE3), purified
